From BindingDB's records for doi:10.1016/s0960-894x(98)00617-9 (Scripps Research Institute, 1999)

Key:
[1] = Compound was tested for inhibitory activity against alpha-Fucosidase obtained from Bovine kidney
[2] = Compound was tested for inhibitory activity against alpha-Fucosidase obtained from Bovine epididymis
[3] = Compound was tested for inhibitory activity against alpha-1,2-Fucosidase obtained from Arthrobacter oxidans F1

Structure (SMILES) | IC50 [1] [µM] | IC50 [2] [µM] | IC50 [3] [µM]
CC1NC(C#N)(CO)C(O)C(O)C1O (centres undefined) [3,4,5-Trihydroxy-2-hydroxymethyl-6-methyl-piperidine-2-carbonitrile] | 0.075 | 0.11 | 0.122
CC1NC(CO)(CNC(=O)CN)C(O)C(O)C1O (centres undefined) [2-Amino-N-(3,4,5-trihydroxy-2-hydroxymethyl-6-methyl-piperidin-2-ylmethyl)-acetamide] | 0.05 | 0.17 | 0.116
CC1NC(CN)(CO)C(O)C(O)C1O (centres undefined) [2-Aminomethyl-2-hydroxymethyl-6-methyl-piperidine-3,4,5-triol] | 0.206 | 0.16 | 0.08
